Measured values as given in article PMC5905287, “Synthesis and in vitro biochemical evaluation of oxime bond-linked daunorubicin–GnRH-III conjugates developed for targeted drug delivery” (Beilstein Journal of Organic Chemistry, 2018).
Where two headings read alike, the source gives them in different places. Non-standard residues stand in square brackets, D forms with d. Residues, ends and D or L forms follow the SMILES beside them. *: point of attachment. Daunorubicin(13-NOCH2CO) = COc1cccc2c1C(=O)c1c(O)c3c(c(O)c1C2=O)C[C@@](O)(C(C)=NOCC(=O)*)C[C@@H]3O[C@H]1C[C@H](N)[C@H](O)[C@H](C)O1; pGlu = O=C1CC[C@@H](C(=O)O)N1; Butyryl = CCCC(=O)*

Tests used:
[1] = test system: HT-29 human colon cancer cell line; test: In vitro cytostatic effect, alamarBlue assay, HT-29; type: cell-based
Text: (§1) Cell lines often function as the first model system of choice to study biological processes or to test the efficiency of drugs or drug conjugates and their cytotoxic effects. Immortal cell lines offer various benefits, for instance they are easy to handle, cost-effective and provide consistent sample and reproducible results. Nevertheless, cell lines also present the disadvantage that after a period of continuous growth, cell characteristics can change and dedifferentiate in culture. The serial passaging can cause genotypic and phenotypic variations and the state of confluency can also affect gene expression pattern in some cell lines. Due to this, the usage of internal standards during the evaluation of new potential candidates might be necessary to ensure comparability with previous results. The cytostatic effect of the novel GnRH-III bioconjugates was determined on HT-29 human colon cancer and MCF-7 human breast cancer cell lines by alamarBlue® assay. For a better comparison, the well-studied bioconjugates GnRH-III–[^8Lys(Dau=Aoa)] (K1) and GnRH-III–[^4Lys(Bu), ^8Lys(Dau=Aoa)] (K2) were used as positive controls and internal standards. The corresponding IC50 values were calculated by using nonlinear regression (sigmoidal dose response) (Figure 3, Table 2). Unfortunately, the D-Trp containing compounds 3 and 6 started to precipitate in both cell culture media at higher concentrations limiting the concentration down to a maximum of 10 µM. This effect could not be prevented by using DMSO instead of ddH2O for the preparation of the stock solutions. Unfortunately, the lower concentration range with a maximum of 10 µM was not sufficient to achieve the dose-response. […] Nevertheless, the replacement of ^6Asp by D-Asp, D-Glu or D-Trp led to a decreased cytostatic effect on the estimated cancer cell lines.
(§2) MCF-7 human breast adenocarcinoma cells were cultured in Dulbecco’s Modified Eagle Medium (DMEM, Lonza, Basel, Switzerland), supplemented with 10% (v/v) fetal bovine serum (FBS, Lonza), L-glutamine (2 mM, Lonza), non-essential amino acids (NEAA, Sigma-Aldrich Kft), sodium pyruvate (1 mM, Lonza) and penicillin-streptomycine (Lonza). […]
(§3) Cells were seeded to 96-well plates (Sarstedt, Nümbrecht, Germany, 5 × 10^3 cells/well) one day prior to the treatment in complete cell medium. […] Fluorescence was detected using Synergy H4 multi-mode microplate reader (BioTek, Winooski, VT, USA), excitation and emission wavelengths were set to 570 and 620 nm, respectively. Cytostasis was measured using 4 parallels, each experiment was repeated twice. Cytostatic effect (and IC50 values) were calculated by using nonlinear regression (sigmoidal dose response) with Origin Pro8 (OriginLab Corp., Northampton, MA, USA.).

[2] = target: T1, GnRH-RI (Homo sapiens, UniProt P30968); test: Competitive inhibition of [125I][6D-Trp]-GnRH-I binding, human prostate cancer membranes; design: human prostate cancer cells were obtained from a patient at the time of initial surgical treatment; from tissue; host or cells: human prostate cancer specimen from a patient (surgery); membrane homogenate
T1 sequence (P30968 1-328): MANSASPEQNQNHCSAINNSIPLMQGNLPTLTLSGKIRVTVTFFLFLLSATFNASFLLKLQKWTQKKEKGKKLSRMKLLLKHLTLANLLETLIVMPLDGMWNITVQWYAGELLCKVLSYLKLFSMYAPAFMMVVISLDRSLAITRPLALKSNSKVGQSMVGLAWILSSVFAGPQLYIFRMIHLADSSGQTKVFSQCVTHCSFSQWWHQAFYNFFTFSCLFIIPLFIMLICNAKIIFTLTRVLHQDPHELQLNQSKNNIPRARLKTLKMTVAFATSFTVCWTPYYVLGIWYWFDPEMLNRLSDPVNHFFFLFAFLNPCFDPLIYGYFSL
Procedure: To investigate the binding affinity of the novel compounds to the GnRH-receptor, an in vitro ligand competition assay has been performed on human pituitary and GnRH-R positive human prostate cancer tissues. Hereby, the displacement of radiolabeled triptorelin by the unlabeled bioconjugates 1, 2, 4 and 5 was determined. For a better comparison, the bioconjugates K1 and K2 were also analyzed and used as reference. The obtained results summarized in Table 3 point out that all bioconjugates replaced [^125I]-triptorelin with IC50 values in low nanomolar range. […] (1.6 nM and 0.9 nM) and GnRH-II–[D-Lys^6(Dau=Aoa)] (4.2 nM and 2.1 nM).
Radiolabeled triptorelin was used for displacement studies to evaluate the binding affinity of the conjugates K1, K2, 1, 2, 4 and 5 to GnRH-RI on human pituitary and human prostate cancer cells. […] The binding affinities of the nonradio-labeled GnRH-III bioconjugates to GnRH-RI were determined by displacement of [^125I]-GnRH-I-[^6D-Trp] performing an in vitro ligand competition assay as recently reported. […] Supernatants were aspirated and the bottoms of the tubes containing the pellet were cut off and counted in a gamma counter. Protein concentration was determined by the method of Bradford using a Bio-Rad protein assay kit (Bio-Rad Laboratories, USA). […]

[3] = test system: MCF-7 human breast cancer cell line; test: In vitro cytostatic effect, alamarBlue assay, MCF-7; type: cell-based
Text: as §1, §2, §3

Compound: COc1cccc2c1C(=O)c1c(O)c3c(c(O)c1C2=O)C[C@@](O)(C(C)=NOCC(=O)NCCCC[C@H](NC(=O)[C@H](Cc1c[nH]c2ccccc12)NC(=O)[C@@H](CCC(=O)O)NC(=O)[C@H](Cc1c[nH]cn1)NC(=O)[C@H](CO)NC(=O)[C@H](Cc1c[nH]c2ccccc12)NC(=O)[C@H](Cc1c[nH]cn1)NC(=O)[C@@H]1CCC(=O)N1)C(=O)N1CCC[C@H]1C(=O)NCC(N)=O)C[C@@H]3O[C@H]1C[C@H](N)[C@H](O)[C@H](C)O1 [compound 2, [6D-Glu, 8Lys(Dau=Aoa)]] ([pGlu]HWSH[dE]WK(Daunorubicin(13-NOCH2CO))PG-NH2)
- IC50 ([1]; 24 h): 10.1 ± 1.4 µM
- IC50 ([2]; displacement of [125I]-triptorelin, human prostate cancer membranes, mean ± SE, read-out: IC50 prostate cancer): 0.0104 ± 0.0013 µM
- IC50 ([3]; 24 h): 6.8 ± 1 µM

Compound: CCCC(=O)NCCCC[C@H](NC(=O)[C@H](Cc1c[nH]c2ccccc12)NC(=O)[C@H](Cc1c[nH]cn1)NC(=O)[C@@H]1CCC(=O)N1)C(=O)N[C@@H](Cc1c[nH]cn1)C(=O)N[C@H](CCC(=O)O)C(=O)N[C@@H](Cc1c[nH]c2ccccc12)C(=O)N[C@@H](CCCCNC(=O)CON=C(C)[C@]1(O)Cc2c(O)c3c(c(O)c2[C@@H](O[C@H]2C[C@H](N)[C@H](O)[C@H](C)O2)C1)C(=O)c1c(OC)cccc1C3=O)C(=O)N1CCC[C@H]1C(=O)NCC(N)=O [compound 5, [4Lys(Bu), 6D-Glu, 8Lys(Dau=Aoa)]] ([pGlu]HWK(Butyryl)H[dE]WK(Daunorubicin(13-NOCH2CO))PG-NH2)
- IC50 ([1]; 24 h treatment, then 48 h in complete medium, alamarBlue, mean ± SE, read-out: HT-29 IC50): 13.7 ± 2.6 µM
- IC50 [2]: 0.0116 ± 0.002 µM
- IC50 ([3]; 24 h treatment, then 48 h in complete medium, alamarBlue, mean ± SE, read-out: MCF-7 IC50): 7 ± 1.2 µM
